By pIC50 is commonly meant the negative decadic logarithm of the IC50, by convention in mol/L.

Format in all cases: cell-based
Data set [1] addresses T1, PepT1 (Homo sapiens, UniProt P46059).
T1 construct: expressed in transfected cells
T1 sequence (P46059 1-708): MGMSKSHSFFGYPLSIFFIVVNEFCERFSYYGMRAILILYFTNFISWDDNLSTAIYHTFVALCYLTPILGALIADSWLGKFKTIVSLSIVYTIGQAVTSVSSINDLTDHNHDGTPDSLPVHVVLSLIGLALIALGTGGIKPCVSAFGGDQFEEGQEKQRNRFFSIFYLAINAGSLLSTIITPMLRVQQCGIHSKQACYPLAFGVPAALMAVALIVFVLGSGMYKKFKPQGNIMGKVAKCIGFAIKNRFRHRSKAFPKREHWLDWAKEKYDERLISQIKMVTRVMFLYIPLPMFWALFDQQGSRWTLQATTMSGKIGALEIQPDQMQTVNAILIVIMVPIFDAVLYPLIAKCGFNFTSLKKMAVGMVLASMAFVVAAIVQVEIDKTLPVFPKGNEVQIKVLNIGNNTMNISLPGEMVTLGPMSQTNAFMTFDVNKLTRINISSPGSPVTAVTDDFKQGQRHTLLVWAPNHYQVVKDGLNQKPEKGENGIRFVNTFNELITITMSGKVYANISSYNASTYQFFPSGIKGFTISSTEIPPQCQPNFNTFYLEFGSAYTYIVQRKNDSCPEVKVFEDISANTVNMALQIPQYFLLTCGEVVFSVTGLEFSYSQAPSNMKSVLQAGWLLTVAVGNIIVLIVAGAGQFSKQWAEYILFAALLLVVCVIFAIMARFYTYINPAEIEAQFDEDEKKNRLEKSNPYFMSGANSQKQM
In words: PepT1 transporter-mediated cellular uptake (substrate test). The note with it: uptake 3 min, 37° C. The procedure:
DMSO (0.5%) was the solvent control (SC) and the known inhibitor for the positive control (PC) was losartan (200 μM). Data were fit to either the Michaelis-Menten equation for uptake or the Hill equation for inhibition using the solvent control to define the top and the positive control inhibitor to define the bottom. Symbols represent the mean±SEM, n=3.
(§1) Human OAT1 (SLC22A6) and OAT3 (SLC22A8) overexpressing HEK-293 cells and control cells without transfected transporter (Corning® TransportoCells™) are plated to 24-well plates and cellular uptake of 10 to 100 μg/mL of a Compound of the Disclosure is measured in the absence and presence of transporter inhibitors. Uptake of a Compound of the Disclosure into control cells is measured only without chemical inhibitors. […] Cells are grown in DMEM (Gibco 4196, high glucose, without sodium pyruvate) supplemented with MEM non-essential amino acids and 10% fetal bovine serum. Cells are re-fed with fresh medium after attachment (4-6 hours post-seeding). Cell are plated at a density of 4×10^5/well in 24-well plates coated with poly-D-lysine. Transporter assays are conducted in 400 μL of HBSS supplemented with 10 mM Hepes, pH 7.4
The known probe substrates used as positive controls are 3 μM chlorothiazide for OAT1, 2 μM estrone-3-sulfate for OAT3, 10 μM gabapentin for LAT1, 50 μM Gly-Sar for PepT1, 500 μM thiophene-2-glyoxylic acid for MCT1. […]

The target of data set [2] is T1, PepT1. The experiment in a line: Inhibition of PepT1 uptake of known substrate Gly-Sar. Conditions: probe substrate Gly-Sar 50 μM. The procedure:
FIG. 2(d) is a line graph showing the concentration-inhibition curves for the inhibition of uptake of known substrate dipeptide Gly-Sar (50 μM) for PepT1. DMSO (0.5%) was the solvent control (SC) and the known inhibitor for the positive control (PC) was losartan (200 μM). Data were fit to either the Michaelis-Menten equation for uptake or the Hill equation for inhibition using the solvent control to define the top and the positive control inhibitor to define the bottom. Symbols represent the mean±SEM, n=3.
The known probe substrates used as positive controls are 3 μM chlorothiazide for OAT1, 2 μM estrone-3-sulfate for OAT3, 10 μM gabapentin for LAT1, 50 μM Gly-Sar for PepT1, 500 μM thiophene-2-glyoxylic acid for MCT1.
The IC50 value for the test item is determined by fitting the Hill equation in the following form:
where A % is the percent activity remaining (the mean cellular uptake observed in the solvent control sample set to 100% and the mean cellular uptake observed in the presence of the positive control inhibitor set to 0%), Top and Bottom are the upper and lower plateau of A %. [I] is the inhibitor concentration and IC50 is the inhibitor concentration where the remaining activity is at the midpoint between the Top and Bottom.

A further data set has as its target T2, OAT1 (SLC22A6) (Homo sapiens, UniProt Q4U2R8).
T2 construct: host or cells: HEK-293
T2 sequence (Q4U2R8 1-563): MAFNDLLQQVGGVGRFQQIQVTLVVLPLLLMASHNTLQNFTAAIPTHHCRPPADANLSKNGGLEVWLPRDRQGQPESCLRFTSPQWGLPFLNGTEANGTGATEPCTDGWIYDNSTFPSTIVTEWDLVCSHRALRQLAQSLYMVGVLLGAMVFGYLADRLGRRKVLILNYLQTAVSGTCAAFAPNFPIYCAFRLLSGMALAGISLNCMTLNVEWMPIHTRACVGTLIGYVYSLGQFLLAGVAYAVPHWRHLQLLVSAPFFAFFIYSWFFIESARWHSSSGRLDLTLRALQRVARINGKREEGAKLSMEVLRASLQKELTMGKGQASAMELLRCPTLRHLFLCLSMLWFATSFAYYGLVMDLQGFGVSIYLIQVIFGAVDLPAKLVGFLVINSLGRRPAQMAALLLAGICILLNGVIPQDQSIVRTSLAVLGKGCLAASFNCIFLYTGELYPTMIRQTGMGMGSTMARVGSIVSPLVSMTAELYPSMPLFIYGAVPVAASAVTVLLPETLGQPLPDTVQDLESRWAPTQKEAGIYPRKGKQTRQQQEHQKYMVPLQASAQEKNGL
The experiment in a line: Inhibition of OAT1 uptake of known substrate chlorothiazide. Conditions: probe substrate chlorothiazide 3 μM. The procedure:
(§2) DMSO (0.5%) was the solvent control (SC) and the known inhibitor diclofenac (100 μM) was the positive control (PC). Data were fit to either the Michalis-Menten equation for uptake or the Hill equation for inhibition using the solvent control to define the top and the positive control inhibitor to define the bottom. Symbols represent the mean±SEM, n=3.
as §1, with “7.4 […]” for “7.4”
(§3) The IC50 value for the test item is determined by fitting the Hill equation in the following form: […]

For the next data set, the target named is T3, OAT3 (SLC22A8) (Homo sapiens, UniProt Q8TCC7).
T3 construct: host or cells: HEK-293
T3 sequence (Q8TCC7 1-542): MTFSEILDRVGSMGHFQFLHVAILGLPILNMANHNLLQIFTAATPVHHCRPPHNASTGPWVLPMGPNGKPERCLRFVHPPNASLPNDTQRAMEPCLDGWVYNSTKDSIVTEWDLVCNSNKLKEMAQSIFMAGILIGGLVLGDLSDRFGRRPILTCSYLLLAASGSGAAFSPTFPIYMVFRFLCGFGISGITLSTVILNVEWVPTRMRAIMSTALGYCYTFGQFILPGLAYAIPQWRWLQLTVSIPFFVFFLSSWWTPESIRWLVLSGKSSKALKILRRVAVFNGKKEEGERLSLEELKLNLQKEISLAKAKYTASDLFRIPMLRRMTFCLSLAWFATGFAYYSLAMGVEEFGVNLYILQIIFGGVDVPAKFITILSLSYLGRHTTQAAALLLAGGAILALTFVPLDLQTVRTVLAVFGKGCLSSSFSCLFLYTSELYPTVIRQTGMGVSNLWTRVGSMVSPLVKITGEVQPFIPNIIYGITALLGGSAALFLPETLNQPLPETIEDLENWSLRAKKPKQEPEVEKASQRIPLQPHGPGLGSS
In words: Inhibition of OAT3 uptake of known substrate estrone-3-sulfate. Conditions: probe substrate estrone-3-sulfate 2 μM. On the procedure:
as §2
as §1, with “7.4 […]” for “7.4”
as §3

pIC50: −log10 of the molar value.

Consider `CC(=O)N[C@@H](CC(C)C)C(=O)O` [N-acetyl-L-leucine], for which, at PepT1 [1], the “substrate of PepT1 (uptake)” value is “not a substrate”. Besides, the pIC50 is 3.13 on PepT1 [2], 2.21 on OAT1 (SLC22A6) and 3.15 against OAT3 (SLC22A8).
